The data set can be described thus: solvent given as SMILES.
[1] abbreviates: in O=P(c1ccccc1)(c1ccccc1)c1ccccc1Oc1ccccc1P(=O)(c1ccccc1)c1ccccc1.

As for `CCCCN1/C(=C\c2c(-c3ccc(N(C)C)cc3)c(=O)c2=O)C=Cc2ccccc21`, the emission maximum reads like this: (in C1CCCCC1) 428 nm; (in Cc1ccccc1) 435 nm; (in ClCCl) 585 nm.

Consider `COc1ccc2c3c(c4ccc(OC)cc4c2c1)C(C)(C)c1ccccc1-3`, for which the emission maximum (in C1CCCCC1) is listed as 391 nm.

Turning to `O=C(O)CCNc1cccc2ccccc12`, the emission maximum (in CCO) worked out at 417 nm.

`N#Cc1cccc2c(N)c(-c3nn([C@H]4C[C@H](O)[C@@H](CO)O4)c4ncnc(N)c34)ccc12`: the emission maximum reads like this: (in C1COCCO1) 488 nm; (in CC#N) 513 nm; (in CC(C)O) 514 nm; (in CCO) 520 nm; (in CCOC(C)=O) 494 nm; (in CN(C)C=O) 524 nm. Moreover, the emission maximum reads like this: (in CO) 527 nm; (in CS(C)=O) 534 nm; (in OCC(O)CO) 522 nm; (in OCCO) 529 nm.

As to `CCCC1(CCC)c2cc(-c3ccc(C(C)(C)C)cc3)ccc2-c2ccc(-c3ccc4c(c3)C(CCC)(CCC)c3cc(-c5ccc(C(C)(C)C)cc5)ccc3-4)cc21`, under “in C1CCCCC1”, the emission maximum is 395 nm.

Regarding `N#Cc1ccc2c(c1)CCc1nc(-c3ccc([N+](=O)[O-])cc3)c3c(c1-2)CCc1cc(C#N)ccc1-3`, the emission maximum was determined as 469 nm (in C1CCOC1); 525 nm (in CC#N); 413 nm (in CCCCCC); 452 nm (in CCOC(C)=O); 475 nm (in CO); 510 nm (in CS(C)=O). Further, the emission maximum runs as follows: (in Cc1ccccc1) 443 nm; (in ClCCl) 475 nm.

`Cc1ccc(N(c2ccc(C)cc2)c2ccc3c(c2)c2cc(N(c4ccc(C)cc4)c4ccc(C)cc4)ccc2n3-c2ccc(-c3nc4cccc5c4n3-c3ccccc3C5(C)C)cc2)cc1` yielded an emission maximum (in Cc1ccccc1) of 496 nm and an emission maximum under setting [1] of 491 nm.

As for `CCOC(=O)c1ccccc1-c1c2ccc(=O)cc-2oc2cc(OC(=O)[C@H](CO[Si](C)(C)C(C)(C)C)NC(=O)OC(C)(C)C)ccc12`, the emission maximum by setting is: (in C1CCOC1) 512 nm; (in CC#N) 542 nm; (in CCO) 525 nm; (in CS(C)=O) 547 nm.

`FC(F)(F)c1ccccc1B1c2ccccc2Nc2ccccc21` had an emission maximum (in ClCCl) of 401 nm.

`COc1ccc(-c2nc(C)cc(-c3ccc(-n4c5ccccc5c5ccccc54)cc3)n2)cc1`: the emission maximum is reported as 418 nm (in C1CCOC1), 453 nm (in CN(C)C=O), 390 nm (in Cc1ccccc1) and 421 nm (in ClC(Cl)Cl).

As for `CCCCC1(c2ccccc2)Nc2c(-c3ccc(N(C)C)cc3)ccc(-c3ccc(N(C)C)cc3)c2N=C1c1ccccc1` (centres undefined), the emission maximum is, setting by setting: (in C1CCOC1) 568 nm; (in CC#N) 588 nm; (in CCCCCC) 530 nm; (in CN(C)C=O) 596 nm; (in Cc1ccccc1) 547 nm; (in ClC(Cl)Cl) 561 nm.

Under “in CS(C)=O”, `COc1cc2sc3cc(OC)c(F)cc3c(=O)c2cc1F` came in with an emission maximum of 416 nm.

Turning to `CCCCCN(c1ccccc1)c1ccc2c(c1)C(CC)(CC)c1cc(/C=C/c3ccc(/C=C(\C#N)C(=O)O)s3)ccc1-2`, the emission maximum reads like this: (in C1CCOC1) 597 nm; (in C1COCCO1) 618 nm; (in CC#N) 496 nm; (in CC(C)=O) 574 nm; (in CCOC(C)=O) 580 nm; (in CN(C)C=O) 504 nm. Moreover, the emission maximum was 517 nm (in CS(C)=O) and 584 nm (in ClCCl).

Turning to `CC1=CC(C)=[N+]2C1=C(C)c1cccn1[B-]2(F)F`, the emission maximum worked out at 498 nm (in CCCCCC), 497 nm (in CO) and 500 nm (in ClCCl).

In turn, `c1cc2c3c(cccc3c1)-c1c-2c2c3ccccc3c3ccc4c5c6c(c7c8ccccc8c8ccc9c%10c%11c(c%12c%13ccccc%13c%13ccc%14c1c1c2c3c4c2c1c1c%14c%13c%12c%10c1c1c9c8c7c5c21)-c1cccc2cccc-%11c12)-c1cccc2cccc-6c12` gave an emission maximum (in C1CCOC1) of 594 nm.

With `CCCCCCCCCc1c2ccccc2cc2c1oc1c3oc4c5oc6cc7ccccc7cc6c5c5ccccc5c4c3c3ccccc3c21`, the emission maximum (in C1CCOC1) is given as 428 nm.

Regarding `Cc1cc(C)c(B(c2cc(-c3ccccc3)sc2-c2sc(-c3ccccc3)cc2P(=O)(c2ccccc2)c2ccccc2)c2c(C)cc(C)cc2C)c(C)c1`, the emission maximum (in CO) worked out at 558 nm.

Regarding `COc1ccccc1C1=C2C(C)=CC(C)=[N+]2[B-](F)(F)n2c(C)cc(C)c21`, the emission maximum is 516 nm (in C1CCOC1); 512 nm (in CC#N); 514 nm (in CC(=O)C(C)(C)C); 513 nm (in CC(C)=O); 516 nm (in CCCCCC); 514 nm (in CCOC(C)=O). Also, the emission maximum (in CO) was determined as 514 nm.

`CC(C)[Si](C#Cc1c2ccccc2c(C#C[Si](C(C)C)(C(C)C)C(C)C)c2nc3c(nc12)Cc1ccccc1-3)(C(C)C)C(C)C` gave an emission maximum (in CCCCCC) of 494 nm.

For the compound `CN1CCN(CCCN2c3ccccc3Sc3ccc(C(F)(F)F)cc32)CC1`, the emission maximum came to 470 nm (in CC#N), 467 nm (in CO) and 482 nm (in O).

As to `c1ccc2cc(-n3cnc4ccccc43)ccc2c1`, the emission maximum runs as follows: (in C1CCCCC1) 374 nm; (in C1CCOC1) 374 nm; (in CC#N) 376 nm; (in CCO) 376 nm; (in CCOC(C)=O) 375 nm; (in CCOCC) 376 nm. Also, the emission maximum amounted to 377 nm (in CO), 374 nm (in Cc1ccccc1) and 375 nm (in ClC(Cl)Cl).

Under “in Cc1ccccc1”, `CCCC1(CCC)c2cc(-c3ccc(-c4ccccc4)cc3)ccc2-c2ccc(-c3ccc4c(c3)C(CCC)(CCC)c3cc(-c5ccc(-c6ccccc6)cc5)ccc3-4)cc21` had an emission maximum of 402 nm.

`CCOC(=O)c1c(-c2cc3c(ccc4ccccc43)oc2=O)nn(-c2cccc(Cl)c2)c1C(=O)OCC` yielded an emission maximum (in ClCCl) of 442 nm.

The compound `C(=N\c1ccc(-c2cn3nc(-c4cccs4)sc3n2)cc1)/c1c2ccccc2cc2ccccc12` yielded an emission maximum (in ClC(Cl)Cl) of 526 nm.

Compound `c1ccc(C2=C(c3ccccc3)c3cccc4c5c(cc(c34)O2)=NC2CCCCC2N=5)cc1` (centres undefined) showed an emission maximum (in ClCCl) of 545 nm.

In the case of `N#Cc1c(-c2ccc(N(c3ccccc3)c3ccccc3)cc2)c(C#N)c(-c2ccc(N(c3ccccc3)c3ccccc3)cc2)c(C#N)c1-c1ccc(N(c2ccccc2)c2ccccc2)cc1`, under setting [1], the emission maximum is 533 nm.

The compound `CN(C)c1ccc(/C=C/C(=O)O)cc1` registered an emission maximum (in C1CCCCC1) of 399 nm; an emission maximum (in C1CCOC1) of 418 nm; an emission maximum (in C1COCCO1) of 414 nm; an emission maximum (in CC#N) of 445 nm; an emission maximum (in CCCCO) of 439 nm; an emission maximum (in CCCO) of 441 nm. Besides, the emission maximum is, setting by setting: (in CCOC(C)=O) 421 nm; (in CO) 453 nm; (in Cc1ccccc1) 413 nm; (in O) 453 nm; (in c1ccccc1) 416 nm.

On to `CN(C)c1ccc(-c2nc(-c3ccccc3)c3ccccn23)cc1`, for which the emission maximum is, setting by setting: (in C1CCCCC1) 482 nm; (in CC#N) 509 nm; (in CO) 500 nm; (in ClCCl) 495 nm; (in O) 512 nm.

`CCCOc1ccc(/C=C/C=C/C=C/c2ccc([N+](=O)[O-])cc2)cc1` returned an emission maximum (in CC1CCCCC1) of 488 nm, an emission maximum (in CC#N) of 747 nm, an emission maximum (in Cc1ccccc1) of 546 nm and an emission maximum (in ClCCl) of 699 nm.

`COc1ccc(-c2c3ccccc3c(C#Cc3ccccc3)c3cc4ccccc4cc23)cc1` showed an emission maximum (in ClCCl) of 550 nm.

For `CCN(CC)c1ccc(/C=C/c2ccc(-c3ccc(/C=C/c4ccc(N(CC)CC)cc4)s3)s2)cc1`, the emission maximum came to 544 nm (in C1CCOC1); 577 nm (in CC#N); 570 nm (in CC(C)=O); 586 nm (in CN(C)C=O); 530 nm (in Cc1ccccc1).

As for `CCCCN(CCCC)c1ccc2c(c1)C#CC#Cc1cc(C(F)(F)F)ccc1C#Cc1cc(c3cc1C#Cc1ccc(N(CCCC)CCCC)cc1C#CC#Cc1cc(C(F)(F)F)ccc1C#C3)C#C2`, the emission maximum is given as 558 nm (in ClCCl) and 522 nm (in c1ccccc1).

`CCOC(=O)c1cc(C(=O)OCC)c2ccc(O)cc2n1` came in with an emission maximum (in CCO) of 474 nm.

For the setting “in ClCCl”, `CCN(CC)c1ccc2c(c1)oc(=O)c1cnc3c(c(C)nn3-c3ccccc3)c12` registered an emission maximum of 445 nm.

On to `O=C1O[B-]2(OC1=O)OC(c1ccccc1)=CC(c1ccc3ccccc3c1)=[O+]2`, for which the emission maximum by setting is: (in CC#N) 555 nm; (in ClC(Cl)(Cl)Cl) 451 nm.

Where the note is “in CO”, `c1ccc(N(c2ccccc2)c2ccc(-c3cnc(-c4ccc(N(c5ccccc5)c5ccccc5)cc4)s3)cc2)cc1` had an emission maximum of 488 nm.

Turning to `CC1=[N+]2C(=C(NC(C)c3ccccc3)c3ccc(C)n3[B-]2(F)F)C=C1c1cc2n(c1)[B-](F)(F)[N+]1=CC=CC1=C2c1c(C)cc(C)cc1C` (centres undefined), the emission maximum reads like this: (in C1CCCCC1) 640 nm; (in CCOC(C)=O) 700 nm.

Consider `C1=C(c2ccc(-c3cccs3)s2)CCC1`, for which the emission maximum reads like this: (in C1CCOC1) 413 nm; (in CC#N) 412 nm; (in CCCCCC) 410 nm; (in CCO) 408 nm; (in OCCOCCO) 416 nm; (in c1ccncc1) 418 nm.

On to `N#Cc1ccc(N2c3ccccc3C(c3ccccc3)(c3ccccc3)c3ccccc32)cc1`, for which the emission maximum (in Cc1ccccc1) turned out to be 428 nm.

Compound `CCCC1(CCC)c2cc(C#N)ccc2-c2ccc(C#N)cc21` registered an emission maximum (in C1CCCCC1) of 324 nm.

The values above are taken from the Deep4Chem optical property database.
